Test results published in patent US6737383B1, “Herbicidal oxadiazolidines” (priority 1999, dated 2004).

Key:
[1] = tested on: sugar beet; experiment: Test B pre/postemergence sugar beet; type: in vivo, Beta vulgaris
Procedure, shortened: (§1)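 Herbicidal effect was estimated by eye on a ten-point control scale after plants spent twelve to sixteen days in a greenhouse following soil or foliar treatment. Foliar sprays targeted plants at one to four leaves; all doses were formulated in a non-phytotoxic solvent with surfactant.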

[2] = tested on: pigweed; experiment: Test B pre/postemergence pigweed; type: in vivo, Amaranthus retroflexus
Procedure, shortened: as §1

[3] = tested on: rice; experiment: Test B flood test rice; type: in vivo, Oryza sativa
Procedure, shortened: (§2)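 Each value is a visual injury score relative to controls, with 10 meaning complete control and 0 no effect. Evaluation took place twelve to sixteen days after the 2-leaf-stage plants were treated and kept in the greenhouse.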

[4] = tested on: smallflower flatsedge; experiment: Test B flood test smallflower flatsedge; type: in vivo, Cyperus difformis
Procedure, shortened: as §2

[5] = tested on: crabgrass; experiment: Test B pre/postemergence crabgrass; type: in vivo, Digitaria sanguinalis
Procedure, shortened: as §1

[6] = tested on: duck salad; experiment: Test B flood test duck salad; type: in vivo, Heteranthera limosa
Procedure, shortened: as §2

[7] = tested on: bamyardgrass; experiment: Test B flood test barnyardgrass; type: in vivo, Echinochloa crus-galli
Procedure, shortened: as §2

[8] = tested on: bedstraw; experiment: Test B pre/postemergence bedstraw; type: in vivo, Galium aparine
Procedure, shortened: as §1

[9] = tested on: cocklebur; experiment: Test B pre/postemergence cocklebur; type: in vivo, Xanthium strumarium
Procedure, shortened: as §1

[10] = tested on: rape; experiment: Test B pre/postemergence rape; type: in vivo, Brassica napus
Procedure, shortened: as §1

[11] = tested on: velvetleaf; experiment: Test B pre/postemergence velvetleaf; type: in vivo, Abutilon theophrasti
Procedure, shortened: as §1

[12] = tested on: morningglory; experiment: Test B pre/postemergence morningglory; type: in vivo, Ipomoea hederacea
Procedure, shortened: as §1

[13] = tested on: wild oat; experiment: Test B pre/postemergence wild oat; type: in vivo, Avena fatua
Procedure, shortened: as §1

[14] = tested on: surinam grass; experiment: Test B pre/postemergence surinam grass; type: in vivo, Brachiaria decumbens
Procedure, shortened: as §1

[15] = tested on: corn; experiment: Test B pre/postemergence corn; type: in vivo, Zea mays
Procedure, shortened: as §1

[16] = tested on: soybean; experiment: Test B pre/postemergence soybean; type: in vivo, Glycine max
Procedure, shortened: as §1

[17] = Preemergence, Rate 62 g/ha, scale of 0 to 10 where 0 is no effect and 10 is complete control
[18] = Preemergence, Rate 250 g/ha, scale 0 to 10, 0 is no effect, 10 is complete control
[19] = Preemergence, Rate 500 g/ha, scale of 0 to 10 where 0 is no effect and 10 is complete control
[20] = Rate 62 g/ha, Postemergence, scale of 0 to 10 where 0 is no effect and 10 is complete control
[21] = Rate 125 g/ha, Postemergence, scale 0 to 10
[22] = Rate 125 g/ha, Preemergence, scale of 0 to 10 where 0 is no effect and 10 is complete control
[23] = Rate 500 g/ha, Postemergence, scale 0 to 10
[24] = Rate 62 g/ha, headed Pre-emergence (flood test species), scale 0 to 10 (0 no effect, 10 complete control)
[25] = Rate 125 g/ha, Pre-emergence, flood test species, scale 0 to 10 where 0 is no effect and 10 is complete control
[26] = Rate 250 g/ha, Pre-emergence, flood-test species, scale 0 to 10, 0 is no effect, 10 is complete control
[27] = Rate 500 g/ha, Pre-emergence, flood test species, scale 0 to 10 (0 no effect, 10 complete control)

CC(C)N(C(=O)n1oc(=O)n(CC=Cc2ccccc2)c1=O)c1ccc(F)cc1 [Compound 210]
0: Sugarbeets plant response rating [1, 17] | Sugarbeets plant response rating [1, 18] | Sugarbeets plant response rating [1, 20] | Sugarbeets plant response rating [1, 21] | Sugarbeets plant response rating [1, 22] | Plant response rating (0 to 10; 0 is no effect, 10 is complete control), Sugarbeets ([1]; Rate 250 g/ha, Postemergence) | Redroot pigweed plant response rating [2, 17] | Redroot pigweed plant response rating [2, 20] | Redroot pigweed plant response rating [2, 21] | Redroot pigweed plant response rating [2, 22] | Rice plant response rating [3, 24] | Rice plant response rating [3, 25] | Rice plant response rating [3, 26] | Rice plant response rating [3, 27] | S. Flatsedge plant response rating [4, 24] | S. Flatsedge plant response rating [4, 25] | S. Flatsedge plant response rating [4, 26] | S. Flatsedge plant response rating [4, 27] | Crabgrass plant response rating [5, 17] | Crabgrass plant response rating [5, 20] | Crabgrass plant response rating [5, 21] | Crabgrass plant response rating [5, 22] | Plant response rating (0 to 10; 0 is no effect, 10 is complete control), Crabgrass ([5]; Rate 250 g/ha, Postemergence) | Crabgrass plant response rating [5, 23] | Ducksalad plant response rating [6, 24] | Ducksalad plant response rating [6, 25] | Ducksalad plant response rating [6, 26] | Ducksalad plant response rating [6, 27] | Barnyardgrass plant response rating [7, 24] | Barnyardgrass plant response rating [7, 25] | Barnyardgrass plant response rating [7, 26] | Barnyardgrass plant response rating [7, 27] | Bedstraw plant response rating [8, 17] | Bedstraw plant response rating [8, 18] | Plant response rating, Bedstraw [8, 19] | Bedstraw plant response rating [8, 20] | Bedstraw plant response rating [8, 22] | Cocklebur plant response rating [9, 17] | Cocklebur plant response rating [9, 18] | Plant response rating, Cocklebur [9, 19] | Cocklebur plant response rating [9, 20] | Cocklebur plant response rating [9, 21] | Cocklebur plant response rating [9, 22] | Plant response rating (0 to 10; 0 is no effect, 10 is complete control), Cocklebur ([9]; Rate 250 g/ha, Postemergence) | Rape plant response rating [10, 17] | Rape plant response rating [10, 18] | Rape plant response rating [10, 20] | Rape plant response rating [10, 21] | Rape plant response rating [10, 22] | Plant response rating (0 to 10; 0 is no effect, 10 is complete control), Rape ([10]; Rate 250 g/ha, Postemergence) | Rape plant response rating [10, 23] | Velvetleaf plant response rating [11, 17] | Velvetleaf plant response rating [11, 18] | Plant response rating, Velvetleaf [11, 19] | Velvetleaf plant response rating [11, 20] | Velvetleaf plant response rating [11, 21] | Velvetleaf plant response rating [11, 22] | Morningglory plant response rating [12, 17] | Morningglory plant response rating [12, 18] | Plant response rating, Morningglory [12, 19] | Morningglory plant response rating [12, 22] | Wild oats plant response rating [13, 17] | Wild oats plant response rating [13, 20] | Wild oats plant response rating [13, 21] | Wild oats plant response rating [13, 22] | Plant response rating (0 to 10; 0 is no effect, 10 is complete control), Wild oats ([13]; Rate 250 g/ha, Postemergence) | B. signalgrass plant response rating [14, 17] | B. signalgrass plant response rating [14, 18] | Plant response rating, B. signalgrass [14, 19] | B. signalgrass plant response rating [14, 20] | B. signalgrass plant response rating ([14]; Rate 125 g/ha, Postemergence, scale 0 (no effect) to 10 (complete control)) | B. signalgrass plant response rating [14, 22] | Plant response rating (0 to 10; 0 is no effect, 10 is complete control), B. signalgrass ([14]; Rate 250 g/ha, Postemergence) | B. signalgrass plant response rating ([14]; Rate 500 g/ha, Postemergence, scale 0 to 10, 0 no effect, 10 complete control) | Corn plant response rating [15, 17] | Corn plant response rating [15, 18] | Plant response rating, Corn [15, 19] | Corn plant response rating [15, 20] | Corn plant response rating [15, 21] | Corn plant response rating [15, 22] | Plant response rating (0 to 10; 0 is no effect, 10 is complete control), Corn ([15]; Rate 250 g/ha, Postemergence) | Corn plant response rating [15, 23] | Soybean plant response rating [16, 17] | Soybean plant response rating [16, 18] | Plant response rating, Soybean [16, 19] | Soybean plant response rating [16, 22]
4: Sugarbeets plant response rating [1, 23] | Plant response rating (0 to 10; 0 is no effect, 10 is complete control), Bedstraw ([8]; Rate 250 g/ha, Postemergence)
3: Plant response rating, Sugarbeets [1, 19] | Crabgrass plant response rating [5, 18] | Plant response rating, Rape [10, 19] | Plant response rating (0 to 10; 0 is no effect, 10 is complete control), Morningglory ([12]; Rate 250 g/ha, Postemergence) | Soybean plant response rating [16, 23]
8: Plant response rating, Redroot pigweed [2, 19] | Plant response rating, Crabgrass [5, 19]
6: Redroot pigweed plant response rating [2, 23]
2: Redroot pigweed plant response rating [2, 18] | Plant response rating (0 to 10; 0 is no effect, 10 is complete control), Redroot pigweed ([2]; Rate 250 g/ha, Postemergence) | Bedstraw plant response rating [8, 21] | Cocklebur plant response rating [9, 23] | Plant response rating (0 to 10; 0 is no effect, 10 is complete control), Velvetleaf ([11]; Rate 250 g/ha, Postemergence) | Morningglory plant response rating [12, 20] | Morningglory plant response rating [12, 21] | Wild oats plant response rating [13, 18] | Plant response rating, Wild oats [13, 19]
7: Morningglory plant response rating [12, 23]
1: Soybean plant response rating [16, 20] | Soybean plant response rating [16, 21] | Plant response rating (0 to 10; 0 is no effect, 10 is complete control), Soybean ([16]; Rate 250 g/ha, Postemergence)
